According to ChEMBL document CHEMBL1149656, “Respiratory syncytial virus fusion inhibitors. Part 6: an examination of the effect of structural variation of the benzimidazol-2-one heterocycle moiety” (Bioorg Med Chem Lett, 2007):

Tests used:
[1] = Cytotoxicity against human Hep2 cells; assay type: cell-based, HEp-2
[2] = test system: Respiratory syncytial virus; assay: Antiviral activity against RSV Long in Hep2 cells; assay type: functional, organism-based; conditions: human respiratory syncytial virus, HEp-2
[3] = test system: Respiratory syncytial virus; assay: Antiviral activity against RSV Long with F1 protein K349R mutation in Hep2 cells; assay type: functional, organism-based; conditions: hep-2
[4] = Metabolic stability in human liver microsomes; assay type: ADME, Microsome
[5] = test system: Respiratory syncytial virus; assay: Reduction of viral RNA in lungs of RSV-infected BALB/c mouse at 50 mg/kg by RT-PCR method; assay type: functional, Lung

Structure (SMILES)	CC50 [1] [nM]	EC50 [2] [nM]	EC50 [3] [nM]	half-life [4] [h]	log10 TCID50 [5]
CC(C)CCn1c(CN2C(=O)CSc3ccccc32)nc2ccccc21	6780	274			
CC(C)CCn1c(CN2C(=O)Cc3ccccc32)nc2ccccc21	8580	32			
CC(C)CCn1c(CN2C(=O)C(C)(O)c3ccccc32)nc2ccccc21 (centres undefined)	101000	97			
CC(C)CCn1c(CN2C(=O)CS(=O)(=O)c3ccccc32)nc2ccccc21	63000	59			
N#CCCCCn1c(CN2C(=O)CS(=O)(=O)c3ccccc32)nc2ccccc21	> 270000	1340			
O=C1CSc2ccccc2N1Cc1nc2ccccc2n1CCCCF	> 96400	1020			
CC1(C)C(=O)N(Cc2nc3ccccc3n2CCCC#N)c2ccccc21	> 100000	19			
CC(C)CCn1c(CN2C(=O)C(CC(=O)O)c3ccccc32)nc2ccccc21 (centres undefined)	16500	705			
CC1(C)Sc2ccccc2N(Cc2nc3ccccc3n2CCCCF)C1=O	32600	> 252000			
CC(C)CCn1c(CN2C(=O)C(CC(=O)NCCc3ccccc3)c3ccccc32)nc2ccccc21 (centres undefined)	940	379			
O=c1ccc2ccccc2n1Cc1nc2ccccc2n1CCCCF	103000	2300			
COc1cc(=O)n(Cc2nc3ccccc3n2CCCCF)c2ccccc12	59500	211			
COc1cc(=O)n(Cc2nc3cc(CN)ccc3n2CCCCF)c2ccccc12	24000	9	> 5000		
CCOC(=O)c1c(OC)c(=O)n(Cc2nc3ccccc3n2CCCCF)c2ccccc12	61600	147			
O=C(O)c1c(O)c(=O)n(Cc2nc3ccccc3n2CCCCF)c2ccccc12	> 38600	25900			
O=c1c(Br)cc2ccccc2n1Cc1nc2ccccc2n1CCCCF	26200	788			
N#CCCCCn1c(CN2C(=O)CCc3ccccc32)nc2ccccc21	27100	1110			
CN(C)CCn1c(CN2C(=O)CCc3ccccc32)nc2ccccc21	153000	456			
Cn1c(=O)c2ccccc2n(Cc2nc3ccccc3n2CCCCO)c1=O	48600	82			
CNCc1ccc2c(c1)nc(Cn1c(=O)n(C3CC3)c(=O)c3ccccc31)n2CCC(C)C	17900	788			
CCCCNCc1ccc2c(c1)nc(Cn1c(=O)n(C3CC3)c(=O)c3ccccc31)n2CCC(C)C	4150	> 191000			

Structure (SMILES)	CC50 [1] [nM]	EC50 [2] [nM]	EC50 [3] [nM]	half-life [4] [h]	log10 TCID50 [5]
COC(=O)c1ccc2c(c1)nc(Cn1c(=O)n(C3CC3)c(=O)c3ccccc31)n2CCC(C)C	230	> 217000			
CC(C)CCn1c(Cn2c(=O)n(C3CC3)c(=O)c3ccccc32)nc2cc(CO)ccc21	62100	314			
N#CCCCn1c(Cn2c(=O)n(C3CC3)c(=O)c3ccccc32)nc2ccccc21	9050	171	> 500		
CS(=O)(=O)CCCn1c(Cn2c(=O)n(CC(F)(F)F)c(=O)c3ccccc32)nc2cc(CN)ccc21	> 123000	21	500		
O=c1c2ccccc2n(Cc2nc3ccccc3n2CCCCF)c(=O)n1C1CC1	38200	50			
NCc1ccc2c(c1)nc(Cn1c(=O)n(CC(F)(F)F)c(=O)c3ccccc31)n2CCCCF	11800	8	> 500	> 1.67	1.6
CCOC(=O)Cn1c(=O)c2ccccc2n(Cc2nc3ccccc3n2CCC(C)C)c1=O	16600	1860			
CCOC(=O)Cn1c(=O)c2ccccc2n(Cc2nc3ccccc3n2CCn2cnnn2)c1=O	8060	288			
O=C(O)Cn1c(=O)c2ccccc2n(Cc2nc3ccccc3n2CCn2cnnn2)c1=O	213000	5240			
O=C1N(Cc2nc3ccccc3n2CCCCF)c2ccccc2S(=O)(=O)N1C1CC1	111000	432			
CC(C)CCn1c(Cn2c(=O)n(Cc3ccc(C(=O)O)cc3)c(=O)c3ccccc32)nc2ccccc21	19300	9			
COC(=O)c1ccc(Cn2c(=O)c3ccccc3n(Cc3nc4ccccc4n3CCn3cnnn3)c2=O)cc1	25300	170			
CC(C)CCn1c(CN2C(=O)N(C3CC3)S(=O)(=O)c3ccccc32)nc2cc(CN)ccc21	7030	3	20		
CC(C)CCn1c(CN2C(=O)N(CC(=O)OC(C)(C)C)S(=O)(=O)c3ccccc32)nc2ccccc21	18400	83			
CN1C(=O)N(Cc2nc3ccccc3n2CCCCO)c2ccccc2S1(=O)=O	219000	19			
N#CCCCn1c(Cn2c(=O)oc3ccccc32)nc2ccccc21	> 300000	2510			
O=c1c2ccccc2n(Cc2nc3ccccc3n2CCCCO)c(=O)n1C1CC1	42600	25			
O=C1CS(=O)(=O)c2ccccc2N1Cc1nc2ccccc2n1CCCCF	211000	229			
CC1(C)C(=O)N(Cc2nc3ccccc3n2CCCCF)c2ccccc2S1(=O)=O	158000	7670			
NCc1ccc2c(c1)nc(Cn1c(=O)n(CC(F)(F)F)c(=O)c3ccccc31)n2CCCCO	52700	8	> 500		
CC(C)CCn1c(CN2C(=O)C(Cc3ccccc3)C(=O)c3ccccc32)nc2ccccc21 (centres undefined)	20100	1810			

Structure (SMILES)	CC50 [1] [nM]	EC50 [2] [nM]	EC50 [3] [nM]	half-life [4] [h]	log10 TCID50 [5]
O=C(O)c1ccc(Cn2c(=O)c3ccccc3n(Cc3nc4ccccc4n3CCn3cnnn3)c2=O)cc1	54700	550			
CC(C)CCn1c(CN2C(=O)C(O)c3ccccc32)nc2ccccc21 (centres undefined)	3310	164			
CC(C)CCn1c(CN2C(=O)C(CC(=O)N(C)C)c3ccccc32)nc2ccccc21 (centres undefined)	4670	205			
CC(C)CCn1c(CN2C(=O)N(CC(=O)O)S(=O)(=O)c3ccccc32)nc2ccccc21	60200	263			
CC(C)CCn1c(Cn2c(=O)n(CC(=O)O)c(=O)c3ccccc32)nc2ccccc21	> 221000	1020			
CN1C(=O)N(Cc2nc3ccccc3n2CCCS(C)(=O)=O)c2ccccc2S1(=O)=O	34500	5730			
CC(C)CCn1c(CN2C(=O)C(=O)c3ccccc32)nc2ccccc21	69800	230			
Cn1c(=O)c2ccccc2n(Cc2nc3ccccc3n2CCCCF)c1=O	> 25900	36			
CC(C)CCn1c(Cn2c(=O)n(C3CC3)c(=O)c3ccccc32)nc2cc(CN)ccc21	8580	11			
CC(C)CCn1c(CN2C(=O)C(CC(=O)NCc3ccccc3)c3ccccc32)nc2ccccc21 (centres undefined)	720	110			
CC(C)CCn1c(Cn2c(=O)oc3ccccc32)nc2ccccc21	30700	44			
CC(C)CCn1c(Cn2c(=O)n(C3CC3)c(=O)c3ccccc32)nc2cc(C(=O)O)ccc21	102000	> 68700			
NCc1ccc2c(c1)nc(Cn1c(=O)n(C3CC3)c(=O)c3ccccc31)n2CCCCF	40600	9	> 500	> 1.67	1.4
COc1cc(=O)n(Cc2nc3cc(CN)ccc3n2CCCCO)c2ccccc12	81500	8	> 500		
O=c1c(O)cc2ccccc2n1Cc1nc2ccccc2n1CCCCF	20200	> 274000			
COC(=O)c1ccc(Cn2c(=O)c3ccccc3n(Cc3nc4ccccc4n3CCC(C)C)c2=O)cc1	11200	260			
NCc1ccc2c(c1)nc(Cn1c(=O)n(C3CC3)c(=O)c3ccccc31)n2CCCCO	> 181000	18	> 500	> 1.67	0.45
N#CCCCn1c(CN2C(=O)N(C3CC3)S(=O)(=O)c3ccccc32)nc2ccccc21	> 244000	55			
CCc1cc2ccccc2n(Cc2nc3ccccc3n2CCCCF)c1=O	85100	902			
CN1C(=O)N(Cc2nc3ccccc3n2CCCCF)c2ccccc2S1(=O)=O	87700	37			
